# Laboratory results taken from patent publication US6441036B1 (priority 1998, dated 2002).
# Key:
# [1] = Plasma free fatty acids and ketone bodies in old obese Zucker rats; type: in vivo, obese Zucker (fa/fa) rats; settings: 21 week-old male rats, standard diet enriched with 0.15% TTA for 15 days; means ± SD
# Protocol: (§1) Glucose (GLU, Boehringer Mannheim, Germany), free fatty acids (NEFA, C ACS-ACOD kit; Wako Chemicals, Dalton, USA) and b-hydroxybutyrate (310-A kit; Sigma Diagnostics Inc., St. Louis, USA) concentrations were measured using enzymatic methods. Insulin concentrations were determined with radioimmunoassay by (CIS bio International, Gif sur Yvette, France) using rat insulin as standard in the Zucker rats. In the Wistar Charles River rats, plasma glucose concentrations were measured with the aid of Beckman Glucose Analyzer (Fullerton, Calif., USA). Plasma insulin levels were measured using a RIA kit from Linco Research Inc. (St. Charles, Mo., USA). Phospholipids were measured by the enzymatic method of bioMérieux, Marcy-l{grave over ( )}Etoile, France, Triacylglycerol by the Technicon Method no. SA4-0324L90, USA and Cholesterol by the Technicon Method no. SA4-0305L90, USA.
# Data are means±SD of six animals in both the control- and the experimental group. Free fatty acids (FFA) and ketone bodies (4-hydroxy butyrate)were measured in plasma and 3-hydroxy-3-methylglutaryl (HMG)—CoA synthase activities were measured in mitochondrial fractions prepared from the liver from 21 week-old male obese Zucker (fa/fa) rats given either a standard diet (control) or a standard diet enriched with 0.15% TTA for 15 days.
# [2] = High fat diet feeding, adipose tissue weights (Example 5); type: in vivo, Wistar Charles River rats; settings: high fat diet + 0.4% TTA, three weeks; means ± SEM
# Protocol: Male Wistar rats Charles River rats weighing 280-358 g were purchases from AnLab Ltd. (Prague, Czech Repubic) and housed in wire-mesh cages in a temperature (22±1° C.) and light-controlled (light from 7:00 a.m. to 7.00 p.m.) room. They were given free access to chow and water. Three rats were housed per cage. Weight gain and food intake were recorded daily.
# High fat (HF): 1.9% gelatin, 5.7% wheat bran, 7.7% vitamins and minerals, 25.4% corn starch, 25.7% casein, 26.8% beef tallow and 7.1 % sunflower oil.
# HF+TTA: Same +0.4% TTA dissolved in the beef tallow.
# Male Wistar Charles River rats (280-360 g) were fed 3 different diets (see methods) for 3 weeks ad libitum. Afterwards, they were killed by decapitation, liver and epididymal adipose tissue pads were dissected out and weighed.
# [3] = system: Salmonella typhimurium; test: Test for mutagenic activity in Salmonella typhimurium strains; type: cell-based; settings: 3-1000 mg/plate (TTA), 2-5000 mg/plate (TSA)
# Description: (§2) Tests for mutagenic activity have been performed by Covance Laboratories Limited, England. […] Furthermore, TTA was not mutagenic when tested in mouse lymphoma cells […] L5178Y.
# [4] = Plasma lipids after feeding moderate doses to animals; type: in vivo, rats, mice, rabbits and dogs; settings: within days of treatment
# [5] = Intravenous glucose tolerance test (IVGTT); type: in vivo; settings: 5 weeks old Zucker (fa/fa) rats
# Protocol: Male Zucker (fa/fa) rats (5 weeks old) were anaesthetised after a 5-hours fast, by intraperitoneal injection of sodium pentobarbital (50 mg/kg). The rats were injected with glucose (0.55 g/kg) in the saphenous vein and blood samples were collected from the tail vein in heparinized tubes at time 0, 5, 10, 15, 20 and 30 minutes after the glucose load. Samples were kept on ice, centrifuged and plasma was stored at −20° C. until analysis.
# [6] = High fat diet induced hyperinsulinemia (Example 11); type: in vivo, Wistar Charles River rats; settings: HF diet supplemented with TTA, 21 days, overnight fast
# Protocol: as §1
# Rats weighing 280-360 g were divided into 3 groups (n=6) and fed with three different diets: standard rat chow, high fat diet (HF) and HF supplemented with TTA. After 21 days on their respective diets, blood was collected after an overnight fast from the tail vein. The data are shown as mean±SEM. Results were analysed by ANOVA and different letters denote statistical significance (p<0.05).
# [7] = Blood insulin and glucose in 5 weeks old Zucker (fa/fa) rats (Example 13); type: in vivo; settings: 300 mg/kg/day by oral gavage, 11 days
# Protocol: as §1
# The rats were administered TTA at a dose of 300 mg/kg/day suspended in 0.5% CMC (n=6) by oral gavage. Following 11 days of treatment, rats were killed by cervical dislocation. Blood was collected and the levels of insulin and glucose measured as indicated in the method section. Data are means±S.D.
# [8] = 28 days toxicity study in dogs (GLP); type: in vivo
# Description: A 28 days toxicity study in dogs according to GLP guide-lines has been performed by Corning Hazleton (Europe), England. […] Some lipid related parameters were lowered in the animals given high dosages. This is consistent with the pharmacological activity of TTA.
# [9] = Lipid lowering effect in obese Zucker fa/fa rats (Example 3); type: in vivo; settings: 300 mg/day/kg by gavage once daily for 10 days; control palmitic acid
# Protocol: as §1
# Male obese Zucker fa/fa rats, weighing 100 g at the start of the experiment, were housed in pairs in metal wire cages in a room maintained at 12 h light-dark cycles and a constant temperature of 20±3° C. The animals were acclimatised for at least one week under these conditions before the start of the experiment.
# TTA (tetradecylthioacetic acid) prepared in accordance with procedure described previously, and palmitic acid (control), was suspended in 0.5% (w/v) carboxymethyl cellulose (CMC). Six animals were used in both groups. TTA (tetradecylthioacetic acid) and palmitic acid were administered at a dose of 300 mg/day/kg body weight, by gastric intubation (gavage) once daily for 10 days. The rats were fasted for 2 hours before termination of the experiment. Blood and organs were collected. Lipid concentrations in plasma were determined using an autoanalyzer, as described in the method section.
# [10] = system: Escherichia coli; test: Test for mutagenic activity in Escherichia coli strains; type: cell-based; settings: 3-1000 mg/plate (TTA), 2-5000 mg/plate (TSA)
# Description: as §2
substance,measurement,setting,value
Tetradecylthioacetic acid [TTA],4-OH butyrate (plasma ketone bodies),[1],3.44 ± 1.37 mmol/L
same,FFA (plasma free fatty acids),[1],0.53 ± 0.21 mEq/L
same,Epididymal adipose tissue,[2],3.1 ± 0.2 g
same,Retroperitoneal adipose tissue,[2],2.7 ± 0.2 g
same,Induction of mutations,[3],did not induce mutations
same,Plasma cholesterol and triacylglycerol levels,[4],decreased
same,IVGTT glucose curves (FIG. 7B),[5]; TTA treated versus control,normal and comparable
same,Plasma insulin response to glucose (FIG. 7A),[5]; glucose 0.55 g/kg i.v.,significantly lower
same,High fat diet-induced hyperinsulinemia (FIG. 3),[6],prevents high fat diet-induced hyperinsulinemia
same,Reduction of blood concentration of glucose (FIG. 5),[7],~15%
same,Reduction of blood insulin concentration (FIG. 5),[7],~40%
same,Lipid related parameters,[8]; animals given high dosages,lowered
same,Body weight,[8]; dose level of 500 mg/kg/day,body weight loss
same,Evidence of toxicity,"[8]; dose levels of 50 or 500 mg/day/kg, 28 days",no evidence of toxicity
same,Tolerability,"[8]; oral administration, dose levels up to 500 mg/kg/day, 28 days",generally well tolerated
same,Decreased lipid level in plasma: Cholesterol,[9],73 % of control
same,Decreased lipid level in plasma: Phospholipids,[9],71 % of control
same,Decreased lipid level in plasma: Triglycerides,[9],72 % of control
same,Induction of mutations,[10],did not induce mutations
